According to patent US20030199698A1, “Carbamic acid esters as inhibitors of factor xa” (priority 2000, published 2003):

What was measured:
factor Xa, human = factor Xa, human (Homo sapiens, UniProt P00742); test: Inhibition of factor Xa; type: biochemical
From the text: The inhibition of factor Xa by the compounds according to the invention and the measurement of the anticoagulant and antithrombotic activity can be determined by conventional in-vitro or in-vivo methods. A suitable method is described, for example, by J. Hauptmann et al. in Thrombosis and Haemostasis 1990, 63, 220-223.
The inhibition of factor Xa can be measured, for example, by the method of T. Hara et al. in Thromb. Haemostas. 1994, 71, 314-319.

TF/VIIa = TF/VIIa (Homo sapiens, UniProt P08709); test: Inhibition of TF/VIIa; type: biochemical
TF/VIIa, sequence (P08709 213-466 limits assumed): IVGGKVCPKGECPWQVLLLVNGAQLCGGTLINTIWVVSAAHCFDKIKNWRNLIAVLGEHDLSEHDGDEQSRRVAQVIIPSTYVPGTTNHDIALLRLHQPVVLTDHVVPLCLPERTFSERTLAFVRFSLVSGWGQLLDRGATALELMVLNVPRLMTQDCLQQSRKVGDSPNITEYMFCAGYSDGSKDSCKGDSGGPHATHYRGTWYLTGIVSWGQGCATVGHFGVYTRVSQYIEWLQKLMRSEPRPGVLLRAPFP
TF/VIIa, sequence (P08709 61-212 limits assumed): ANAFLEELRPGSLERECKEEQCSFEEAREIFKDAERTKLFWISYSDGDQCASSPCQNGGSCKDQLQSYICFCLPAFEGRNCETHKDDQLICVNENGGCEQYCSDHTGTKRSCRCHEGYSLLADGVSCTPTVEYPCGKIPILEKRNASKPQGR
TF/VIIa, sequence (P13726 33-295 partner): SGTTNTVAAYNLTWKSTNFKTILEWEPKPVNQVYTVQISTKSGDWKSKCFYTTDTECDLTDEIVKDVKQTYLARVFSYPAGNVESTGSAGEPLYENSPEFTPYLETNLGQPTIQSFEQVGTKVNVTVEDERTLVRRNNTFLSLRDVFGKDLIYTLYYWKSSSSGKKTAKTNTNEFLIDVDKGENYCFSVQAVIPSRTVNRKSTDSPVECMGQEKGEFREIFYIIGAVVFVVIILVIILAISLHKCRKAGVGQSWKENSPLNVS
From the text: The inhibition of factor VIIa by the compounds according to the invention and the measurement of the anticoagulant and antithrombotic activity can be determined by conventional in-vitro or in-vivo methods. A conventional method for the measurement of the inhibition of factor VIIa is described, for example, by H. F. Ronning et al. in Thrombosis Research 1996, 84, 73-81.

factor Xa, human, sequence (P00742 235-488 limits assumed): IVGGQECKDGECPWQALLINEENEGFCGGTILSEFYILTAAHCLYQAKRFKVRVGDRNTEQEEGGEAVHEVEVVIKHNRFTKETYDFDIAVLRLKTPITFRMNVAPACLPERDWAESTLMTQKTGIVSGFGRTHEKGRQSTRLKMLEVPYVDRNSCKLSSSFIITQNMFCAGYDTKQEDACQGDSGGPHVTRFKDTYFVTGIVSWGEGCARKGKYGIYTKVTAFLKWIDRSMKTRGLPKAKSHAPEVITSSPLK
factor Xa, human, sequence (P00742 41-179 limits assumed): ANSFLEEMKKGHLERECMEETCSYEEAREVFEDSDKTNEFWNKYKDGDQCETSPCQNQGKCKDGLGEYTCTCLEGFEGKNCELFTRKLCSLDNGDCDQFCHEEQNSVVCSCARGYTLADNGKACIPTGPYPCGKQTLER

Compound | IC50 (factor Xa, human) | IC50 (TF/VIIa) | melting point
CCCN(Cc1cccc(C(=N)N)c1)C(=O)Oc1ccc(-c2ccccc2S(N)(=O)=O)cc1 [Example 2.3, 2′-aminosulfonylbiphenyl-4-yl (3-amidinobenzyl)propylcarbamate] | 450 nM | 350 nM | 119 to 120 °C
CCCN(Cc1cccc(C(=N)N)c1)C(=O)Oc1ccc(-c2ccccc2S(C)(=O)=O)cc1 [Example 3.3, 2′-methylsulfonylbiphenyl-4-yl (3-amidinobenzyl)propylcarbamate] | 340 nM | 130 nM | 
